Measurements published in patent US11123341B2, “Butyrylcholinesterase inhibitors for treatment of opioid use disorder” (priority 2019, dated 2021).

Legend:
heroin-induced lethality = assay: Protection of mice against acute toxicity (lethality) of a lethal dose of heroin; assay type: in vivo; conditions: 10 min before heroin 25 mg/kg IV, n=6
Experimental: (§1) All mice were allowed ad libitum access to food and water and maintained on a 12 h light/12 h dark cycle, with the lights on at 8:00 a.m. at a room temperature of 21-22° C. Experiments were performed in a same colony room in accordance with the Guide for the Care and Use of Laboratory Animals as adopted and promulgated by the National Institutes of Health. The animal protocol was approved by the IACUC (Institutional Animal Care and Use Committee) at the University of Kentucky.
Heroin-induced acute toxicity was characterized in this study by the occurrence of death. […] Following the heroin administration, mice were immediately placed in containers for observation. The presence or absence of death was recorded for 6 hours following heroin administration.
(§2) Heroin-induced acute toxicity was characterized by the lethality (occurrence of death). For the protection experiments, a single dose of ethopropazine was administrated (IV) prior to administration of a lethal dose (LD100) of heroin (e.g. 25 mg/kg, IV). At 10 min after IV administration of ethopropazine or saline (negative control), the mice were given a lethal dose (LD100) of heroin. The protection experiments were performed under various dose conditions (n=6 for each scenario).

[1] = system: heroin-induced hyperactivity; assay: Locomotor activity test of heroin-induced hyperactivity; assay type: in vivo, mice; conditions: 10 mg/kg IV, 10 min prior to heroin 2.5 mg/kg IP; n=8
Experimental: as §1

BChE = BChE (Homo sapiens, UniProt P06276); conditions: read-out: IC50 for BChE; cited from earlier work
[2] = 1 mg/kg IV
Experimental: as §2

BChE, sequence (P06276 29-602): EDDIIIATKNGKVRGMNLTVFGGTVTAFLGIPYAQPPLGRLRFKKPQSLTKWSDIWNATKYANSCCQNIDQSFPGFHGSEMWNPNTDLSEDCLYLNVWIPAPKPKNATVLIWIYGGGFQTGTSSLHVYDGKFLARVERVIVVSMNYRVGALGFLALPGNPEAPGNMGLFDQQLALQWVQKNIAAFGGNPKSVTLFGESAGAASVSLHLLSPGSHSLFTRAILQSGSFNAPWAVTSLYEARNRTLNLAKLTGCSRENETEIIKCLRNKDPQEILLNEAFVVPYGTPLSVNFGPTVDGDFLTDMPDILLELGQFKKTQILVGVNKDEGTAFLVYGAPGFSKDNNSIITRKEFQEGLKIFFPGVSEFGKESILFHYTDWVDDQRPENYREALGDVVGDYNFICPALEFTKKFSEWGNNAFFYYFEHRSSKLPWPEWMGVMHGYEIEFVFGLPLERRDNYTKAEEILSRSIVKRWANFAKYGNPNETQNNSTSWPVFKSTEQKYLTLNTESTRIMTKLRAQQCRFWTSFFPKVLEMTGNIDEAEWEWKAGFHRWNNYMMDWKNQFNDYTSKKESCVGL

Row | Compound | protection against heroin-induced lethality (heroin-induced lethality; ethopropazine 1 mg/kg IV) | protection against heroin-induced lethality (heroin-induced lethality; ethopropazine 10 mg/kg IV) | effect on heroin-induced hyperactivity (total distance traveled) [1] | IC50 (BChE) [nM] | adverse effect observed in mice [2] | protection against heroin-induced lethality (heroin-induced lethality; naltrexone 0.3 mg/kg IV)
1 | CCN(CC)C(C)CN1c2ccccc2Sc2ccccc21 (stereo not drawn) [ethopropazine] | partial protection | protected all mice | significantly attenuated heroin-induced hyperactivity | 210 to 300 |  | 
2 | O=C1CC[C@@]2(O)[C@H]3Cc4ccc(O)c5c4[C@@]2(CCN3CC2CC2)[C@H]1O5 [naltrexone] |  |  |  |  | not able to stand and could hardly move at all | partial protection
